Patent US5989326A, “Dyes for ink jet printing” (Ilford Imaging Switzerland GmbH, priority 1997, dated 1999)
Values joined by “and” are separate entries in the source; they are usually repeats but may differ in a detail not shown here. Equal entries are not always repeated.

Tests used:
[1] = Absorption maximum in water; format: physicochemical
Text: The absorption maxima and the results of the tests (B) to (D) are reported in Table 6 for the dyes of the invention and the comparative values for previously known disazo dyes in Table 7.

[2] = Dye solubility in deionised water; format: physicochemical; details: for Solubility: deionised water, stirred 1 hour at 50° C., cooled to 20° C.; for Solubility, comparison in words: versus previously known black disazo dyes 12 and 14
Experimental: The dye was dispersed or solubilised in deionised water and the dispersion or solution was stirred for one hour at 50° C. Then the mixture was cooled down to 20° C., centrifuged and filtered. The solubility of the dye was calculated a) from UV/VIS spectral data of the mother liquor (solution) or b) based on the dried filter residue.

Row | HD max in water [1] | Solubility [2] | Solubility, comparison in words [2] | Structure (SMILES)
1 | 569 nm | – | – | COc1cc(N=Nc2cccc(S(=O)(=O)O)c2)c(C)cc1N=Nc1c(S(=O)(=O)O)cc2ccc(NCCS(=O)(=O)O)cc2c1O [Compound 1]
2 | 583 nm | – | – | Cc1cc(N=Nc2c(S(=O)(=O)O)cc3ccc(NCCS(=O)(=O)O)cc3c2O)c(OCCO)cc1N=Nc1cc(S(=O)(=O)O)c2cccc(S(=O)(=O)O)c2c1 [Compound 5]
3 | 575 nm | > 20 g per 100 ml | much higher solubility | COc1cc(N=Nc2ccc3c(S(=O)(=O)O)cc(S(=O)(=O)O)cc3c2)c(C)cc1N=Nc1c(S(=O)(=O)O)cc2ccc(NCCS(=O)(=O)O)cc2c1O [Compound 6]
4 | 559 nm | – | – | Cc1cc(N=Nc2c(S(=O)(=O)O)cc3ccc(Nc4cccc(S(=O)(=O)O)c4)cc3c2O)ccc1N=Nc1cc(S(=O)(=O)O)c2cccc(S(=O)(=O)O)c2c1 [Compound 10, reference compound]
5 | 488 nm | – | – | COc1cc(N=Nc2cccc(C(=O)O)c2)c(NC(C)=O)cc1N=Nc1c(S(=O)(=O)O)cc2ccc(NCCC(=O)O)cc2c1O [Compound 13, reference compound]

Continued, compound first:

Row | Structure (SMILES) | HD max in water [1] | Solubility [2] | Solubility, comparison in words [2]
6 | Cc1cc(N=Nc2c(S(=O)(=O)O)cc3ccc(NCCS(=O)(=O)O)cc3c2O)c(OCCO)cc1N=Nc1cccc(S(=O)(=O)O)c1 [Compound 2] | – | > 20 g per 100 ml | much higher solubility
7 | COc1cc(N=Nc2cc(S(=O)(=O)O)c3cccc(S(=O)(=O)O)c3c2)c(C)cc1N=Nc1c(S(=O)(=O)O)cc2ccc(NCCS(=O)(=O)O)cc2c1O [Compound 4] | 584 nm | > 20 g per 100 ml | much higher solubility
8 | COc1cc(N=Nc2c(S(=O)(=O)O)cc3ccc(NCCS(=O)(=O)O)cc3c2O)c(OC)cc1N=Nc1cc(S(=O)(=O)O)c2cccc(S(=O)(=O)O)c2c1 [Compound 7] | 595 nm and 491 nm | – | –
9 | COc1cc(N=Nc2cccc(C(=O)O)c2)c(NC(C)=O)cc1N=Nc1c(S(=O)(=O)O)cc2ccc(N)cc2c1O [Compound 11, reference compound] | 557 nm | – | –
10 | COc1cc(N=Nc2cccc(C(=O)O)c2)c(NC(C)=O)cc1N=Nc1c(S(=O)(=O)O)cc2ccc(Nc3ccc(C(=O)O)cc3)cc2c1O [Compound 12, reference compound] | 498 nm | 3.6 g per 100 ml | –
11 | COc1cc(N=Nc2c(S(=O)(=O)O)cc3ccc(Nc4ccc(C(=O)O)cc4)cc3c2O)c(OC)cc1N=Nc1ccc(C(=O)O)cc1 [Compound 14, reference compound] | 584 nm | 17 g per 100 ml | –
12 | COc1cc(N=Nc2cccc(C(=O)O)c2)c(C)cc1N=Nc1c(S(=O)(=O)O)cc2ccc(N)cc2c1O [Compound 15, reference compound] | 557 nm | – | –
